The record followed here is patent publication US20260000676A1, “CHROMAN DERIVATIVES AS ESTROGEN RECEPTOR DEGRADERS” (THE REGENTS OF THE UNIVERSITY OF MICHIGAN, priority 2022, published 2026).

In assay [1] the target is CRBN/DDB1 (Homo sapiens (Human), UniProt Q96SW2). The assay is described as follows: HTRF binding assay to CRBN/DDB1. The conditions noted are these: read-out: CRBN HTRF IC50. As for the experimental part: The binding potency was determined using HTRF assay technology (Perkin Elmer). Compounds were serially diluted in DMSO and 0.2 μL volume was transferred to white 384-well plate.
CRBN/DDB1, sequence (Q96SW2 whole entry): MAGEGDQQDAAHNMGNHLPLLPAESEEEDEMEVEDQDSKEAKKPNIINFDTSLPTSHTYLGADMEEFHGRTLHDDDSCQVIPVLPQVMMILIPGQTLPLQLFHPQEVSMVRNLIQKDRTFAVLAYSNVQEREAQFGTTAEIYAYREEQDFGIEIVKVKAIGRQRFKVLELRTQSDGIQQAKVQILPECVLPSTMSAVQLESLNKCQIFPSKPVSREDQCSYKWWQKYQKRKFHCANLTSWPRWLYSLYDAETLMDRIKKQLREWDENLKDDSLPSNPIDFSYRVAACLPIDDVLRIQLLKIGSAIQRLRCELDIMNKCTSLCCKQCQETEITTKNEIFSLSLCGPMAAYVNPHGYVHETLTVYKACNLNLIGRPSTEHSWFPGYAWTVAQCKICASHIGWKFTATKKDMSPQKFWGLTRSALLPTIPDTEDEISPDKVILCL
CRBN/DDB1, sequence (Q16531 whole entry partner): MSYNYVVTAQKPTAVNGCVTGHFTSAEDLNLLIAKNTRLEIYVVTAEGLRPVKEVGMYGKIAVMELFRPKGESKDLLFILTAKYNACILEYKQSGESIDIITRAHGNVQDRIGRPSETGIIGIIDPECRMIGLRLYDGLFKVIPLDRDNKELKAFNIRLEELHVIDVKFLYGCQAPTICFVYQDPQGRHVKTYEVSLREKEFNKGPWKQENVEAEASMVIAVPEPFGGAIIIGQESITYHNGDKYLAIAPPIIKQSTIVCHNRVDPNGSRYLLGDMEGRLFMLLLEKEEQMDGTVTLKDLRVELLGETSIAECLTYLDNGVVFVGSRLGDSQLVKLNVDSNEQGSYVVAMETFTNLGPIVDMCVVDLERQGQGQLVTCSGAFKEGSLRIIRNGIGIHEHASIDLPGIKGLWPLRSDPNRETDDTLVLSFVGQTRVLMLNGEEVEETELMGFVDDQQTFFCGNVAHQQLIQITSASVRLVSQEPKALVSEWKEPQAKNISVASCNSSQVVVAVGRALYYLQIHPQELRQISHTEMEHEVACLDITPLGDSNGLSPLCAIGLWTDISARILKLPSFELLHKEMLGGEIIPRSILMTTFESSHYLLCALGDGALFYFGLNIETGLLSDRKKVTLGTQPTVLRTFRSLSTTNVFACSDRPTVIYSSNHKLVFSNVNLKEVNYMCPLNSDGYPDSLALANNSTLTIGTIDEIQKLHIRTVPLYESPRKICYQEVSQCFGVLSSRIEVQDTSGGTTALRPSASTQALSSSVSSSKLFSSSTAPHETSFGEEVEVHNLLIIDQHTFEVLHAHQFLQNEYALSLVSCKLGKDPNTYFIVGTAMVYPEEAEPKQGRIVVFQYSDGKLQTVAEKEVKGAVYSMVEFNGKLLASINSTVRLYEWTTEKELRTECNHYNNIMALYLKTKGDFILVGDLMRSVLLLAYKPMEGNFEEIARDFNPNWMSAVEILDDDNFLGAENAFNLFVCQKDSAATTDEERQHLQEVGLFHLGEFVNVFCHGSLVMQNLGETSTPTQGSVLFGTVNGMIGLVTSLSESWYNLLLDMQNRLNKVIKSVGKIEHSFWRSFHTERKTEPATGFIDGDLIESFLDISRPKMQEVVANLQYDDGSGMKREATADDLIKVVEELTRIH
A general note: Time-resolved FRET reads energy transfer from a long-lived donor to a nearby acceptor.

The test system of assay [2] is MCF-7 cells. Nature of the assay: cells. The conditions noted are these: Homo sapiens, MCF7, 144 h, read-out: MCF7 Proliferation IC50 (nM).
Description: (§1) In vitro assay can be accomplished by MCF-7 and T47D Cell Titer Glo (CTG) assay. MCF-7 and T47D cell (From HDB) are cultured in multi-well white plate with phenol red-free RPMI1640+10% CS-FBS+1% P/S medium (e.g., at 1,000 cells/well). On day 0: Cells are treated with compound at certain concentrations (e.g., 0.5 to 10000 nM) (DMSO and Staurosporine as control). On day 0 and day 6: add Cell Titer Glo reagent and read on EnVision after 30 min incubation for data generation.
(§2) • 1) Cell culture medium: phenol red-free RPMI1640+10% CS-FBS, 1% P/S
(§3) Day-1: MCF-7 and T47D cell (From HDB) were cultured in 384-well white plate with phenol red-free RPMI1640+10% CS-FBS+1% P/S medium (1,000 cells/well) for overnight at 37° C., 5% CO2 incubator.
(§4) Day 0: Cells were treated at desired compound concentrations (0.5 to 10000 nM) (DMSO and Staurosporine as control) for Day 6 at 37° C., 5% CO2 incubator.
(§5) Day 0 and Day 6: add Cell TiterGlo reagent and read on EnVision after 30 min incubation for data generation.
In assay [3] the target is T1, ER (Homo sapiens (Human), UniProt P03372). Nature of the assay: In-cell western (ICW) ER degradation assay in MCF-7 cells. Type of assay: cell-based. To be noted: MCF7, 16 hrs; for DC50: ER degradation; for Dmax: MCF7, maximal ER degradation.
T1 sequence (P03372 whole entry): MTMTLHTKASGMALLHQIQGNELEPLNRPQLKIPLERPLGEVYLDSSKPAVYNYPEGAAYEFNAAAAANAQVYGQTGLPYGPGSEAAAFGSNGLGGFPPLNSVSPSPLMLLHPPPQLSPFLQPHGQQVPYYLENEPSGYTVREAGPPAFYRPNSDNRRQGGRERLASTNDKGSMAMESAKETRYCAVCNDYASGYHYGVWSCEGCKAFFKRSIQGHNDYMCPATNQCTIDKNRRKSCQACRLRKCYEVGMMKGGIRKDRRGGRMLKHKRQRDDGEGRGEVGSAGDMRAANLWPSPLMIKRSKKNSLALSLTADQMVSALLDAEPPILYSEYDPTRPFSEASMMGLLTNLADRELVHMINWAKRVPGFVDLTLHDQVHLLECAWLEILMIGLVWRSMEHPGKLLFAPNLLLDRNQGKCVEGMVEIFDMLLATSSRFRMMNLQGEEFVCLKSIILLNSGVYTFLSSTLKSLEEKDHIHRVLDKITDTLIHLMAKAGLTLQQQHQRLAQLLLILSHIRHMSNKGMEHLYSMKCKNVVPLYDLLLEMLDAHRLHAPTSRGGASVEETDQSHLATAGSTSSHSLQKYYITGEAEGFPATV
The target in assay [4] is T1, ER. Nature of the assay: In-cell western (ICW) ER degradation assay in T47D cells. Type of assay: cell-based. The conditions noted are these: 16 hrs; for DC50: ER degradation; for Dmax: maximal ER degradation.
The subject of assay [5] is T47D cells. Nature of the assay: cells. To be noted: Homo sapiens, 144 h, read-out: T47D Proliferation IC50 (nM).
Description: as §1, §2, §3, §4, §5

pIC50: −log10 of the molar value. Counter-ions that a name gives are not always drawn.

For `O=C1CC[C@@H](N2Cc3cc4c(cc3C2=O)OC[C@H]2CN(CC3CC5(CCN(c6ccc([C@@H]7c8ccc(O)cc8OC[C@@H]7c7ccccc7)cc6)CC5)C3)CCN42)C(=O)N1` [Compound A95, (R)-3-((R)-3-((7-(4-((3S,4R)-7-hydroxy-3-phenylchroman-4-yl)phenyl)-7-azaspiro[3.5]nonan-2-yl)methyl)-8-oxo-1,2,3,4,4a,5,8,10-octahydro-9H-pyrazino[1′,2′:4,5][1,4]oxazino[2,3-f]isoindol-9-yl)piperidine-2,6-dione], the negative-log IC50 (pIC50) in assay [1] was 5.30 to 6.30. The IC50 in assay [2] was 50 to 500 nM; in assay [5] it was under 50 nM. For the same molecule, the DC50 in assay [3] and in assay [4] was 1 to 10 nM in each case. Also, the Dmax in assay [3] and in assay [4] was 50 to 75% throughout.

For `COc1cc(C(=O)NC2CCC(=O)NC2=O)ncc1N1CCN(CC2CC3(CCN(c4ccc([C@H]5c6ccc(O)cc6OC[C@H]5c5ccccc5)cc4)CC3)C2)CC1` (single isomer, unassigned) [Compound A116], the negative-log IC50 (pIC50) in assay [1] was 5.30 to 6.30. In addition, the results for the IC50 in assay [2] and in assay [5] were under 50 nM and 50 to 500 nM, respectively. Moreover, the 50% degradation concentration (DC50) in assay [3] and in assay [4] was under 1 nM in each case. Also, the greatest degradation seen (Dmax) in assay [3] and in assay [4] was 50 to 75% in each case.

As for `O=C1CC[C@@H](N2Cc3cc4c(cc3C2=O)OC[C@H]2CN(CC3CCC5(CC3)CN(c3ccc([C@@H]6c7ccc(O)cc7OC[C@@H]6c6ccccc6)cc3)C5)CCN42)C(=O)N1` [Compound A119, (R)-3-((R)-3-((2-(4-((3S,4R)-7-hydroxy-3-phenylchroman-4-yl)phenyl)-2-azaspiro[3.5]nonan-7-yl)methyl)-8-oxo-1,2,3,4,4a,5,8,10-octahydro-9H-pyrazino[1′,2′:4,5][1,4]oxazino[2,3-f]isoindol-9-yl)piperidine-2,6-dione], in assay [1], the negative-log IC50 (pIC50) is 5.30 to 6.30. The IC50 in assay [2] lay within 50 to 500 nM; in assay [5], 500 to 5000 nM. Also, the DC50 in assay [3] and in assay [4] was 1 to 10 nM throughout. The greatest degradation seen (Dmax) in assay [3] and in assay [4] was 50 to 75% throughout.

`O=C1CC[C@@H](N2Cc3cc4c(cc3C2=O)OC[C@@H]2CN(CC3CC5(CCN(c6ccc([C@H]7c8ccc(O)cc8OC[C@H]7c7ccccc7)cc6)CC5)C3)CCN42)C(=O)N1` [Compound A96, (R)-3-((S)-3-((7-(4-((3R,4S)-7-hydroxy-3-phenylchroman-4-yl)phenyl)-7-azaspiro[3.5]nonan-2-yl)methyl)-8-oxo-1,2,3,4,4a,5,8,10-octahydro-9H-pyrazino[1′,2′:4,5][1,4]oxazino[2,3-f]isoindol-9-yl)piperidine-2,6-dione]: the pIC50 in assay [1] is 6.30 to 7.30. Also, the IC50 in assay [2] and in assay [5] was under 50 nM throughout. For the same molecule, the DC50 in assay [3] and in assay [4] was under 1 nM throughout. Also, the Dmax in assay [3] and in assay [4] was 50 to 75% throughout.

Regarding `O=C1CCC(Nc2ccc(N3CCN(CC4CC5(CCN(c6ccc([C@H]7c8ccc(O)cc8OC[C@H]7c7ccccc7)cc6)CC5)C4)CC3)c(F)c2)C(=O)N1` (single isomer, unassigned) [Compound A51], the pIC50 in assay [1] is 5.30 to 6.30. In addition, the IC50 in assay [2] and in assay [5] was 50 to 500 nM throughout. The DC50 in assay [3] and in assay [4] was under 1 nM throughout. In addition, the maximal degradation (Dmax) in assay [3] and in assay [4] was 25 to 50% throughout.

Take `O=C1CCC(N2Cc3cc4c(cc3C2=O)CN(C(=O)CN2CC3(CCN(c5ccc([C@H]6c7ccc(O)cc7OC[C@H]6c6ccccc6)cc5)CC3)C2)C4)C(=O)N1` (stereo partly drawn) [Compound A56, 3-(6-(2-(7-(4-((3R,4S)-7-hydroxy-3-phenylchroman-4-yl)phenyl)-2,7-diazaspiro[3.5]nonan-2-yl)acetyl)-1-oxo-3,5,6,7-tetrahydropyrrolo[3,4-f]isoindol-2(1H)-yl)piperidine-2,6-dione formate]: the pIC50 in assay [1] is 6.30 to 7.30. Moreover, the IC50 in assay [2] and in assay [5] was under 50 nM in each case. Further, the DC50 was 1 to 10 nM in assay [3] (formate) and under 1 nM in assay [4]. The “MCF7 Dmax %” value in assay [3] (maximal ER degradation, formate) was “B (“B”: >50% and <75%)”. The same molecule gave a Dmax in assay [4] of at least 75%.

On to `O=C1CCC(N2Cc3c(ccc4c3OCC43CCN(CC4CCC5(CC4)CN(c4ccc([C@@H]6c7ccc(O)cc7OC[C@@H]6c6ccccc6)cc4)C5)CC3)C2=O)C(=O)N1` (stereo partly drawn) [Compound A114, 3-(1′-((2-(4-((3S,4R)-7-hydroxy-3-phenylchroman-4-yl)phenyl)-2-azaspiro[3.5]nonan-7-yl)methyl)-6-oxo-6,8-dihydro-2H,7H-spiro[furo[2,3-e]isoindole-3,4′-piperidin]-7-yl)piperidine-2,6-dione], for which the pIC50 in assay [1] was over 7.30. Further, the IC50 in assay [2] and in assay [5] was under 50 nM each time. In addition, the DC50 in assay [3] and in assay [4] was under 1 nM in each case. Further, the Dmax in assay [3] and in assay [4] was at least 75% throughout.

As for `O=C1CC[C@H](N2Cc3cc4c(cc3C2)N2CCN(C[C@@H]3COC5(CCN(c6ccc([C@H]7c8ccc(O)cc8OC[C@H]7c7ccccc7)cc6F)CC5)C3)C[C@H]2CO4)C(=O)N1` [Compound A161, (S)-3-((S)-3-(((R)-8-(2-fluoro-4-((3R,4S)-7-hydroxy-3-phenylchroman-4-yl)phenyl)-1-oxa-8-azaspiro[4.5]decan-3-yl)methyl)-1,2,3,4,4a, 5,8,10-octahydro-9H-pyrazino[1′,2′:4,5][1,4]oxazino[2,3-f]isoindol-9-yl)piperidine-2,6-dione], the pIC50 in assay [1] was 6.30 to 7.30. In addition, the IC50 in assay [2] is under 50 nM. In assay [3], this molecule yielded a DC50 of under 1 nM and a Dmax of 50 to 75%. In assay [4], the DC50 is under 1 nM and the Dmax is at least 75%.

Consider `O=C1CCC(N2Cc3c(ccc4c3OCC43CCN(CC4CC5(CCN(c6ccc([C@@H]7c8ccc(O)cc8OC[C@@H]7c7ccccc7)cc6)CC5)C4)CC3)C2=O)C(=O)N1` (stereo partly drawn) [Compound A113, 3-(1′-((7-(4-((3S,4R)-7-hydroxy-3-phenylchroman-4-yl)phenyl)-7-azaspiro[3.5]nonan-2-yl)methyl)-6-oxo-6,8-dihydro-2H,7H-spiro[furo[2,3-e]isoindole-3,4′-piperidin]-7-yl)piperidine-2,6-dione], for which, in assay [1], the negative logarithm of the IC50 (pIC50) was over 7.30. Besides, the IC50 was under 50 nM in assay [2] and over 5000 nM in assay [5]. Besides, the DC50 in assay [3] and in assay [4] was under 1 nM each time. The Dmax in assay [3] and in assay [4] was 50 to 75% each time.

Broadly, the pIC50 is −log10 of the IC50, conventionally taken in molar units. By DC50 is commonly meant the concentration giving 50% degradation. Lower therefore signals degradation at low concentration. Usually Dmax stands for the largest share of the target that was removed. High values mean deep degradation, low ones shallow degradation.
